Paper PMC10473532 (PLOS ONE, 2023)
Read-outs that look alike come from different tables or passages of the source.

How the values were obtained:
human β3-AR = human β3-AR (Homo sapiens, UniProt P13945); test: cAMP accumulation in CHO-K1 cells expressing human β3-AR; details: for EC50: EC50 β3-AR; for β3-AR selectivity vs β1-AR / β3-AR selectivity vs β2-AR: comparison between EC50 values; for cAMP activity at Cmax,u / cAMP activity at Cmin,u: from dose-response curve, β3-AR cells TF 0.025 μg/well;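 on all read-outs here: CHO-K1 cells transiently transfected with a β-AR expression plasmid, cAMP assayed roughly 24 h post-transfection, values derived from agonist concentration–response curves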
human β3-AR, sequence (P13945 whole entry): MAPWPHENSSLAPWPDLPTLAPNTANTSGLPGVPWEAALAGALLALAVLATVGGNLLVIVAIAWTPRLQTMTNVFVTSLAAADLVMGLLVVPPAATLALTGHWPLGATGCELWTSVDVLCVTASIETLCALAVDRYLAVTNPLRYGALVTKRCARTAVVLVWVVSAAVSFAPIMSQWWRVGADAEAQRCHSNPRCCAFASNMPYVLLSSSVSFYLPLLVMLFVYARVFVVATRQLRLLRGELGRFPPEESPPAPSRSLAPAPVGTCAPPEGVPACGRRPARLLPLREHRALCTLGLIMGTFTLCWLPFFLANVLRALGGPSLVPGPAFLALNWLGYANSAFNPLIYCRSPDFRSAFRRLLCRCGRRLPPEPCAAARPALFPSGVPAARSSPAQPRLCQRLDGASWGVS
Protocol: (§1) Chinese hamster ovary (CHO)-K1 cells (DS Pharma Biomedical Co., Ltd., Osaka, Japan) were cultured in Ham’s F-12 medium containing 10% fetal bovine serum under 5% CO2 at 37°C. For cAMP assay, 2×10^5 cells/mL were inoculated onto a 96-well plate at 100 μL/well. […] The cells were cultured for about 24 h and used for β-AR transfection (see below). The DNA sequences encoding β1-AR (P08588.2), β2-AR (NP_000015.1), or β3-AR (NP_000016.1) were cloned into a pCI-Neo expression vector (Promega, WI, USA). CHO-K1 cells expressing β1-AR, β2-AR, or β3-AR were constructed by transfection with the appropriate plasmid DNA (β1-, β2-, or β3-AR) using Lipofectamine 2000 (Life Technologies Japan Ltd., Tokyo, Japan), according to the manufacturer’s instructions. […] Lipofectamine was diluted with Opti-MEM (0.5 μL Lipofectamine/25 μL Opti-MEM) and incubated for 5 min at room temperature. Solutions containing plasmid DNA and Lipofectamine, respectively, were mixed in equal amounts and incubated for 20 min at room temperature. […] The transfected CHO-K1 cells were then cultured for about 24 h and used for the following experiments. Similar experiments were performed after reducing the amounts of transfected plasmid DNA to 0.05 and 0.025 μg.
(§2) Cells that had been cultured for about 24 h after transfection were subjected to cAMP assay.
(§3) In the cAMP assay, the half-maximal effective concentration (EC50) value was calculated for each agonist based on its concentration–response curve using GraphPad Prism 6.0 nonlinear regression analysis.

β3-AR = details: recent study comparing vibegron and mirabegron; cited from earlier work
human β2-AR = human β2-AR (Homo sapiens, UniProt P07550, E27Q/G16R); test: cAMP accumulation in CHO-K1 cells expressing human β2-AR; details: for Intrinsic activity β2-AR: isoproterenol max = 1.00
Protocol: as §1, §2, §3

human β1-AR = biological target: T1, human β1-AR (Homo sapiens, UniProt P08588); test: cAMP accumulation in CHO-K1 cells expressing human β1-AR; assay type: cell-based;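 further: cells transiently transfected with a β1-AR expression plasmid, seeded in 96-well plates and assayed for cAMP about 24 h after transfection across agonist concentration–response curves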
T1 construct: expressed in transfected cells; host or cells: CHO-K1 cells, transient transfection with pCI-Neo plasmid (Lipofectamine 2000)
T1 sequence (P08588 whole entry): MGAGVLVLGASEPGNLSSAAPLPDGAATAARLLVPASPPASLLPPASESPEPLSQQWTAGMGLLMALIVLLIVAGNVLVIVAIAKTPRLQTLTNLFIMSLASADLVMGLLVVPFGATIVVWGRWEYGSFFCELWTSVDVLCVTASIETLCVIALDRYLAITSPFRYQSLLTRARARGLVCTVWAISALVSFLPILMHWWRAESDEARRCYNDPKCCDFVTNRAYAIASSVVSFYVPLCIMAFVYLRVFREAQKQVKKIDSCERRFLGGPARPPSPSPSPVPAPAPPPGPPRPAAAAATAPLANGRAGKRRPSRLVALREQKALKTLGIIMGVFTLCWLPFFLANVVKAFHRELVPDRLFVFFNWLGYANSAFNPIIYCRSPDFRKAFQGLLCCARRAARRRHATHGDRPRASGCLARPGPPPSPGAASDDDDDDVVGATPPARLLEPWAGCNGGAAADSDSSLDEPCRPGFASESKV
Protocol: as §1, §2, §3

β1-AR = biological target: β1-AR; design: method as in PMID 22430195; details: binding assays; read-out: inhibition constant (Ki) β1-AR; cited from earlier work
β2-AR = biological target: β2-AR; design: method as in PMID 22430195; details: binding assays; read-out: inhibition constant (Ki) β2-AR; cited from earlier work
[1] = unbound plasma concentrations at once-daily 50 mg clinical dose; assay type: in vivo, human; details: for Cmax,u (unbound maximum plasma concentration): calculated from Cmax and plasma-protein-binding rate; for Cmin,u (unbound minimum plasma concentration): calculated from Cmin and plasma-protein-binding rate
[2] = system: isolated rat bladder strips; design: method as in PMID 24213882; details: cited from earlier work
[3] = 52-week, cited from earlier work
[4] = therapeutic doses, clinical trials; cited from earlier work
[5] = TF 0.05 μg/well, isoproterenol max = 1.00
[6] = TF 0.1 μg/well, 347 fmol/mg, concentration producing 50% of the maximal response induced by isoproterenol
[7] = EC50 β2-AR, CHO-K1, TF 0.1 μg/well plasmid DNA, cAMP accumulation
[8] = CHO-K1, TF 0.1 μg/well plasmid DNA, cAMP accumulation, read-out: EC50 β1-AR
[9] = TF 0.025 μg/well, isoproterenol max = 1.00
[10] = TF 0.025 μg/well, read-out: EC50 β1-AR
[11] = TF 0.05 μg/well, read-out: EC50 β1-AR
[12] = TF 0.1 μg/well, maximal response of isoproterenol = 1.00
[13] = CHO-K1, TF 0.1 μg/well plasmid DNA, cAMP accumulation

Compound | Iso50 (human β3-AR; TF 0.025 μg/well, 116 fmol/mg) [nM] | Iso50 (human β3-AR; TF 0.05 μg/well, 222 fmol/mg) [nM] | Intrinsic activity β3-AR (human β3-AR; [5]) | Iso50 (human β3-AR; [6]) [nM] | EC50 (human β2-AR; [7]) [µM] | EC50 (human β2-AR; EC50 β2-AR, TF 0.025 μg/well) [µM] | EC50 (human β2-AR; EC50 β2-AR, TF 0.05 μg/well) [µM] | Intrinsic activity β2-AR (human β2-AR; TF 0.05 μg/well) | EC50 (human β1-AR; [8]) [µM] | Intrinsic activity β1-AR (human β1-AR; [9]) | EC50 (human β1-AR; [10]) [µM] | Intrinsic activity β1-AR (human β1-AR; [5]) | EC50 (human β1-AR; [11]) [µM] | Intrinsic activity β1-AR (human β1-AR; [12]) | EC50 (human β3-AR; [13]) [nM] | EC50 (human β3-AR; TF 0.025 μg/well) [nM] | EC50 (human β3-AR; TF 0.05 μg/well) [nM] | Intrinsic activity β3-AR (human β3-AR; [12]) | β3-AR selectivity vs β1-AR (human β3-AR; TF 0.1 μg/well) | β3-AR selectivity vs β2-AR (human β3-AR; TF 0.1 μg/well) | other results
CC(C)NC[C@H](O)c1ccc(O)c(O)c1 [Isoproterenol, (–)-isoprenaline (+)-bitartrate] | 78.0 ± 10.9 | 37.9 ± 6.40 | (0.96 ± 0.02) | 11.8 ± 1.78 | – | – | – | – | – | – | – | – | – | – | – | – | – | – | – | – | –
Cc1cc(OCC(=O)O)c(C)cc1CCN[C@@H](C)[C@H](O)c1ccc(O)cc1 [Ritobegron, ritobegron] | 943 ± 244 | 303 ± 60.7 | (1.00 ± 0.07) | 81.5 ± 15.4 | 2.27 ± 1.34 | > 10 | > 10 | (0.32 ± 0.05) | > 10 | (0.04 ± 0.01) | > 10 | (0.11 ± 0.02) | > 10 | (0.33 ± 0.03) | 80.8 ± 12.6 | 1520 ± 950 | 398 ± 104 | (0.99 ± 0.02) | >124 | 28.1 | Iso50 (human β3-AR; TF 0.025 μg/well, 116 fmol/mg, listed as ritobegron): 943 nM; Intrinsic activity β3-AR (human β3-AR; TF 0.05 μg/well, isoproterenol max = 1.00, listed as ritobegron): 1.00; Intrinsic activity β3-AR (human β3-AR; TF 0.1 μg/well, maximal response of isoproterenol = 1.00, listed as ritobegron): 0.99
O=C(O)c1cccc(-c2cccc(NCCNC[C@H](O)c3cccc(Cl)c3)c2)c1 [Solabegron, solabegron] | 252 ± 78.4 | 119 ± 27.1 | (0.91 ± 0.10) | 31.0 ± 10.8 | > 10 | > 10 | > 10 | (0.20 ± 0.02) | 0.588 ± 0.105 | (0.25 ± 0.06) | > 10 | (0.28 ± 0.04) | > 10 | (0.60 ± 0.04) | 27.6 ± 9.08 | 83.6 ± 29 | 85.1 ± 5.84 | (0.96 ± 0.03) | 21.3 | >362 | Iso50 (human β3-AR; TF 0.025 μg/well, 116 fmol/mg, listed as solabegron): 252 nM; Intrinsic activity β3-AR (human β3-AR; TF 0.05 μg/well, isoproterenol max = 1.00, listed as solabegron): 0.91; Intrinsic activity β3-AR (human β3-AR; TF 0.1 μg/well, maximal response of isoproterenol = 1.00, listed as solabegron): 0.96
CC(Cc1ccc(O)cc1)NCC(O)c1cc(O)cc(O)c1 (centres unmarked) [fenoterol] | – | – | – | – | – | – | – | – | – | – | – | – | – | – | – | – | – | – | – | – | attenuation of bladder relaxant effect after pretreatment, washout and fresh addition [2]: marked attenuation of the bladder relaxant effect

Continued, in another order:

Iso50 (human β3-AR; TF 0.025 μg/well, 116 fmol/mg) [nM] | Iso50 (human β3-AR; TF 0.05 μg/well, 222 fmol/mg) [nM] | Intrinsic activity β3-AR (human β3-AR; [5]) | Iso50 (human β3-AR; [6]) [nM] | EC50 (human β2-AR; [7]) [µM] | EC50 (human β2-AR; EC50 β2-AR, TF 0.025 μg/well) [µM] | EC50 (human β2-AR; EC50 β2-AR, TF 0.05 μg/well) [µM] | Intrinsic activity β2-AR (human β2-AR; TF 0.05 μg/well) | EC50 (human β1-AR; [8]) [µM] | Intrinsic activity β1-AR (human β1-AR; [9]) | EC50 (human β1-AR; [10]) [µM] | Intrinsic activity β1-AR (human β1-AR; [5]) | EC50 (human β1-AR; [11]) [µM] | Intrinsic activity β1-AR (human β1-AR; [12]) | EC50 (human β3-AR; [13]) [nM] | EC50 (human β3-AR; TF 0.025 μg/well) [nM] | EC50 (human β3-AR; TF 0.05 μg/well) [nM] | Intrinsic activity β3-AR (human β3-AR; [12]) | β3-AR selectivity vs β1-AR (human β3-AR; TF 0.1 μg/well) | β3-AR selectivity vs β2-AR (human β3-AR; TF 0.1 μg/well) | Compound | other results
26.9 ± 7.51 | 4.45 ± 0.66 | (0.84 ± 0.04) | 1.32 ± 0.26 | 0.57 ± 0.235 | > 10 | > 10 | (0.31 ± 0.05) | 0.594 ± 0.122 | (0.25 ± 0.03) | > 10 | (0.38 ± 0.02) | > 10 | (0.59 ± 0.02) | 1.15 ± 0.24 | 4.17 ± 0.89 | 2.81 ± 0.6 | (0.94 ± 0.02) | 517 | 496 | Nc1nc(CC(=O)Nc2ccc(CCNC[C@H](O)c3ccccc3)cc2)cs1 [Mirabegron, mirabegron] | IA (Emax) (β3-AR): 80.4%; Ki (β1-AR): 383 nM; Ki (β2-AR): 977 nM; Cmax,u (unbound maximum plasma concentration) [1]: 20 nM; Cmin,u (unbound minimum plasma concentration) [1]: 3 nM; attenuation of bladder relaxant effect after pretreatment, washout and fresh addition [2]: did not produce such attenuation; Iso50 (human β3-AR; TF 0.025 μg/well, 116 fmol/mg, listed as mirabegron): 26.9 nM; Intrinsic activity β3-AR (human β3-AR; TF 0.05 μg/well, isoproterenol max = 1.00, listed as mirabegron): 0.84; Intrinsic activity β3-AR (human β3-AR; TF 0.1 μg/well, maximal response of isoproterenol = 1.00, listed as mirabegron): 0.94; cAMP activity at Cmax,u (human β3-AR): about 53%; cAMP activity at Cmin,u (human β3-AR): about 27%
22.5 ± 14.5 | 3.74 ± 0.73 | (1.00 ± 0.03) | 1.26 ± 0.29 | > 10 | > 10 | > 10 | (0.09 ± 0.03) | > 10 | (0.00 ± 0.00) | > 10 | (0.02 ± 0.01) | > 10 | (0.10 ± 0.01) | 1.26 ± 0.4 | 12.5 ± 2.41 | 3.83 ± 0.93 | (0.93 ± 0.05) | >7937 | >7937 | O=C(Nc1ccc(C[C@@H]2CC[C@H]([C@H](O)c3ccccc3)N2)cc1)[C@@H]1CCc2nccc(=O)n21 [Vibegron] | IA (Emax) (β3-AR): 99.2%; EC50 (human β2-AR; EC50 in cells expressing β2-ARs, TF 0.1 μg/well): > 10 µM; β2-AR agonist activity (human β2-AR; lowest β2-AR density 108 fmol/mg): no β2-AR agonist activity; EC50 (human β1-AR; TF 0.1 μg/well, read-out: EC50 in cells expressing β1-ARs): > 10 µM; β1-AR agonist activity (human β1-AR; cells TF 0.05 μg/well (245 fmol/mg)): no β1-AR agonist activity; attenuation of efficacy ([3]; 50 mg and 100 mg): not observed; vital signs (systolic blood pressure, diastolic blood pressure, and pulse) ([3]; supratherapeutic dose 100 mg): did not affect vital signs; Cmax,u (unbound maximum plasma concentration) [1]: 56 nM; Cmin,u (unbound minimum plasma concentration) [1]: 14 nM; incidence of increased blood pressure and hypertension [4]: does not affect the incidence of increased blood pressure and hypertension; Iso50 (human β3-AR; TF 0.025 μg/well, 116 fmol/mg, listed as vibegron): 22.5 nM; Intrinsic activity β3-AR (human β3-AR; TF 0.05 μg/well, isoproterenol max = 1.00, listed as vibegron): 1.00; β3-AR selectivity, higher than for β1-ARs (human β3-AR; TF 0.1 μg/well): > 7937 fold; β3-AR selectivity, higher than for β2-ARs (human β3-AR; TF 0.1 μg/well): > 7937 fold; Intrinsic activity β3-AR (human β3-AR; TF 0.1 μg/well, maximal response of isoproterenol = 1.00, listed as vibegron): 0.93; cAMP activity at Cmax,u (human β3-AR): about 82%; cAMP activity at Cmin,u (human β3-AR): ~59%
